Here are results for 3 molecules from patent US10604554B2, “Double-acylated GLP-1 derivatives” (Novo Nordisk A/S, priority 2012, dated 2020).

In general, EC50 refers to the concentration at which the effect is half-maximal. Broadly, the IC50 is the point on the concentration scale where inhibition reaches its midpoint.

Molecules are shown by their SMILES.

Test [1] concerns the target T1, human GLP-1 receptor (Homo sapiens, UniProt P43220).
T1 construct: expressed in transfected cells; host or cells: BHK cells, clone FCW467-12A/KZ10-1 (parent line BHKTS13), further transfected with CRE luciferase
In words: In vitro potency (CRE luciferase; whole cells). The format is cell-based. The arrangement: EC50/pM (ratio 1% HSA/0% HSA): unit not given here. Particulars: for EC50: BHK cells. The method, then:
The purpose of this example is to test the activity, or potency, of the GLP-1 derivatives in vitro. The in vitro potency is the measure of human GLP-1 receptor activation in a whole cell assay.
In vitro potency was determined by measuring the response of human GLP-1 receptor in a reporter gene assay. The assay was performed in a stably transfected BHK cell line that expresses the human GLP-1 receptor and contains the DNA for the cAMP response element (CRE) coupled to a promoter and the gene for firefly luciferase (CRE luciferase). When the human GLP-1 receptor was activated it results in the production of cAMP, which in turn results in the luciferase protein being expressed. When assay incubation was completed the luciferase substrate (luciferin) was added and the enzyme converts luciferin to oxyluciferin and produces bioluminescence. The luminescence was measured and was the readout for the assay.
An increase of the in vitro potency, EC50 value, in the presence of serum albumin indicates an affinity to serum albumin and represents a method to predict a protracted pharmacokinetic profile of the test substance in animal models.
The cells were cultured at 5% CO2 in cell culture medium. They were aliquoted and stored in liquid nitrogen. Before each assay an aliquot was taken up and washed twice in PBS before being suspended at the desired concentration in the assay specific buffer.
The following chemicals were used in the assay: Pluronic F-68 (10%) (Gibco 2404), human serum albumin (HSA) (Sigma A9511), ovalbumin (Sigma A5503), DMEM w/o phenol red (Gibco 11880-028), 1 M Hepes (Gibco 15630), Glutamax 100× (Gibco 35050) and steadylite plus (PerkinElmer 6016757).
1) Cell stocks were thawed in a 37° C. water bath.
2) Cells were washed three times in PBS.
3) The cells were counted and adjusted to 5×10^3 cells/50 μl (1×10^5 cells/ml) in assay medium. A 50 μl aliquot of cells was transferred to each well in the assay plate.
4) Stocks of the test compounds and reference compounds were diluted to a concentration of 0.2 μM in 0% assay buffer for the 0% HSA CRE luciferase assay and 1% assay buffer for the HSA CRE luciferase assay. […] 5) A 50 μl aliquot of compound or blank was transferred in triplicate from the dilution plate to the assay plate. […] 7) The assay plate was removed from the incubator and allowed to stand at room temperature for 15 min. 8) A 100 μl aliquot of steadylite plus reagent was added to each well of the assay plate (reagent was light sensitive). 9) Each assay plate was covered with aluminum foil to protect it from light and shaken for 30 min at room temperature. 10) Each assay plate was read in a Packard TopCount NXT instrument. Calculations and Results
The data from the TopCount instrument were transferred to GraphPad Prism software. The software averages the values for each replicate and performs a non-linear regression.

In test [2] the target is T1, human GLP-1 receptor. In words: GLP-1 receptor binding (SPA, displacement of 125I-GLP-1). The method, then: The purpose of this experiment is to investigate the binding to the GLP-1 receptor of the GLP-1 derivatives, and how the binding is potentially influenced by the presence of albumin. This is done in an in vitro experiment as described below.
In order to test the binding of the derivatives to albumin, the assay was performed with a low concentration of albumin (0.001%—corresponding to the residual amount thereof in the tracer), as well as with a high concentration of albumin (2.0% added). A shift in the binding affinity, IC50, is an indication that the peptide in question binds to albumin, and thereby a prediction of a potential protracted pharmacokinetic profile of the peptide in question in animal models.
Species (in vitro): Hamster
Biological End Point: Receptor Binding
A stable transfected cell line and a high expressing clone were selected for screening. The cells were grown at 5% CO2 in DMEM, 10% FCS, 1% Pen/Strep (Penicillin/Streptomycin) and 1.0 mg/ml of the selection marker G418.
The cells (approx. 80% confluence) were washed twice in PBS and harvested with Versene (aqueous solution of the tetrasodium salt of ethylenediaminetetraacetic acid), following which they were separated by centrifugation at 1000 rpm for 5 min. The cells/cell pellet must be kept on ice to the extent possible in the subsequent steps. The cell pellet was homogenised with Ultrathurrax for 20-30 seconds in a suitable amount of Buffer 1 (depending on the amount of cells, but e.g. 10 ml). The homogenate was centrifuged at 20000 rpm for 15 minutes. The pellet was resuspended (homogenised) in 10 ml Buffer 2 and re-centrifuged. This step was repeated once more. The resulting pellet was resuspended in Buffer 2, and the protein concentration was determined. The membranes were stored at minus 80° C.
Buffer 1:20 mM Na-HEPES+10 mM EDTA, pH 7.4
Buffer 2:20 mM Na-HEPES+0.1 mM EDTA, pH 7.4
Test compounds, membranes, SPA-particles and [^125I]-GLP-1(7-36)NH2 were diluted in assay buffer. 50 ul (micro liter) HSA (“high albumin” experiment containing 2% HSA), or buffer (“low albumin” experiment containing 0.001% HSA) was added to Optiplate, and 25 ul of test compounds were added. 5-10 ug membrane protein/sample was added (50 ul) corresponding to 0.1-0.2 mg protein/ml (to be preferably optimised for each membrane preparation). SPA-particles (Wheatgerm agglutinin SPA beads, Perkin Elmer, # RPNQ0001) were added in an amount of 0.5 mg/well (50 ul). The incubation was started with [^125I]-GLP-1]-(7-36)NH2 (final concentration 0.06 nM corresponding to 49.880 DPM, 25 ul). The plates were sealed with PlateSealer and incubated for 120 minutes at 30° C. while shaking. The plates were centrifuged (1500 rpm, 10 min) and counted in Topcounter.
In general terms: In a radioligand displacement assay an active substance lowers the binding of a labelled ligand.

Where [3] appears, read: In vitro potency (CRE luciferase) EC50 (0% HSA), 0% HSA.
The mark [4] stands for this setting: In vitro potency (CRE luciferase) EC50 (1% HSA), 1% HSA.
[5] abbreviates: Receptor binding affinity IC50 (high HSA), 2.0% HSA (high albumin).
Where [6] appears, read: Receptor binding affinity IC50 (low HSA), 0.001% HSA (low albumin).

T1 sequence (P43220 24-463): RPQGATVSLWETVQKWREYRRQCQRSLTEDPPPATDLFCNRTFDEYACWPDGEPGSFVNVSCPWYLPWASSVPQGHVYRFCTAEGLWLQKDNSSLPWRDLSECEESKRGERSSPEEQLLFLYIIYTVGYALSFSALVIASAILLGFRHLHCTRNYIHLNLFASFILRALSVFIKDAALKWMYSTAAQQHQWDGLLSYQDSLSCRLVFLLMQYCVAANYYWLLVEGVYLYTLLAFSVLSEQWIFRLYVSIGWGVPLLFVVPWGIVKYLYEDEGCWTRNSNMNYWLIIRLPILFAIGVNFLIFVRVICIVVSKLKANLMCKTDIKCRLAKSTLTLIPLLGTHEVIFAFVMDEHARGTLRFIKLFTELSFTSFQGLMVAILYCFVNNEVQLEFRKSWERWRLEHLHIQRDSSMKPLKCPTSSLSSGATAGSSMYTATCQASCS

Take `CC[C@H](C)[C@H](NC(=O)[C@H](Cc1ccccc1)NC(=O)[C@H](CCC(=O)O)NC(=O)[C@H](CCCCNC(=O)[C@@H](N)CCCCNC(=O)[C@@H](N)CCCCNC(=O)COCCOCCNC(=O)CC[C@H](NC(=O)CCCCCCCCCCOc1ccc(C(=O)O)cc1)C(=O)O)NC(=O)[C@H](C)NC(=O)[C@H](C)NC(=O)[C@H](CCC(N)=O)NC(=O)CNC(=O)[C@H](CCC(=O)O)NC(=O)[C@H](CC(C)C)NC(=O)[C@H](Cc1ccc(O)cc1)NC(=O)[C@H](CO)NC(=O)[C@H](CO)NC(=O)[C@@H](NC(=O)[C@H](CC(=O)O)NC(=O)[C@H](CO)NC(=O)[C@@H](NC(=O)[C@H](Cc1ccccc1)NC(=O)[C@@H](NC(=O)CNC(=O)[C@H](CCC(=O)O)NC(=O)C(C)(C)NC(=O)[C@@H](N)Cc1c[nH]cn1)[C@@H](C)O)[C@@H](C)O)C(C)C)C(=O)N[C@@H](C)C(=O)N[C@@H](Cc1c[nH]c2ccccc12)C(=O)N[C@@H](CC(C)C)C(=O)N[C@H](C(=O)N[C@@H](CCCNC(=N)N)C(=O)NCC(=O)N[C@@H](CCCNC(=N)N)C(=O)N[C@@H](CCCCNC(=O)[C@@H](N)CCCCNC(=O)[C@@H](N)CCCCNC(=O)COCCOCCNC(=O)CC[C@H](NC(=O)CCCCCCCCCCOc1ccc(C(=O)O)cc1)C(=O)O)C(=O)O)C(C)C` [Example 34, N^ε26-[(2S)-2-amino-6-[[(2S)-2-amino-6-[[2-[2-[2-[[(4S)-4-carboxy-4-[11-(4-carboxyphenoxy)undecanoylamino]butanoyl]amino]ethoxy]ethoxy]acetyl]amino]hexanoyl]amino]hexanoyl], N^ε37-[(2S)-2-amino-6-[[(2S)-2-amino-6-[[2-[2-[2-[[(4S)-4-carboxy-4-[11-(4-carboxyphenoxy)undecanoylamino]butanoyl]amino]ethoxy]ethoxy]acetyl]amino]hexanoyl]amino]hexanoyl]-[Aib^8,Arg^34,Lys^37]-GLP-1-(7-37)-peptide]: the EC50 at human GLP-1 receptor [1] (setting [3]) came to 0.0079 nM; at human GLP-1 receptor [1] (setting [4]), 0.059 nM. For the same molecule, on human GLP-1 receptor [1] (ratio of EC50 at 1% HSA to EC50 at 0% HSA), the “EC50/pM (ratio 1% HSA/0% HSA)” value is 9.1. In addition, the results for the IC50 at human GLP-1 receptor [2] (setting [5]) and on human GLP-1 receptor [2] (setting [6]) were 45 nM and 0.12 nM, respectively.

As to `CC[C@H](C)[C@H](NC(=O)[C@H](Cc1ccccc1)NC(=O)[C@H](CCC(=O)O)NC(=O)[C@H](CCCCNC(=O)[C@@H](N)CCCCNC(=O)[C@@H](N)CCCCNC(=O)[C@H](CO)NC(=O)[C@H](CO)NC(=O)CC[C@H](NC(=O)CCCCCCCCCCOc1ccc(C(=O)O)cc1)C(=O)O)NC(=O)[C@H](C)NC(=O)[C@H](C)NC(=O)[C@H](CCC(N)=O)NC(=O)CNC(=O)[C@H](CCC(=O)O)NC(=O)[C@H](CC(C)C)NC(=O)[C@H](Cc1ccc(O)cc1)NC(=O)[C@H](CO)NC(=O)[C@H](CO)NC(=O)[C@@H](NC(=O)[C@H](CC(=O)O)NC(=O)[C@H](CO)NC(=O)[C@@H](NC(=O)[C@H](Cc1ccccc1)NC(=O)[C@@H](NC(=O)CNC(=O)[C@H](CCC(=O)O)NC(=O)C(C)(C)NC(=O)[C@@H](N)Cc1c[nH]cn1)[C@@H](C)O)[C@@H](C)O)C(C)C)C(=O)N[C@@H](C)C(=O)N[C@@H](Cc1c[nH]c2ccccc12)C(=O)N[C@@H](CC(C)C)C(=O)N[C@H](C(=O)N[C@@H](CCCNC(=N)N)C(=O)NCC(=O)N[C@@H](CCCNC(=N)N)C(=O)N[C@@H](CCCCNC(=O)[C@@H](N)CCCCNC(=O)[C@@H](N)CCCCNC(=O)[C@H](CO)NC(=O)[C@H](CO)NC(=O)CC[C@H](NC(=O)CCCCCCCCCCOc1ccc(C(=O)O)cc1)C(=O)O)C(=O)O)C(C)C` [Example 35], on human GLP-1 receptor [1] (setting [3]), the EC50 was found to be 0.0055 nM. Also, the results for the IC50 on human GLP-1 receptor [2] (setting [5]) and on human GLP-1 receptor [2] (setting [6]) were 36 nM and 0.08 nM, respectively.

As to `CC[C@H](C)[C@H](NC(=O)[C@H](Cc1ccccc1)NC(=O)[C@H](CCC(=O)O)NC(=O)[C@H](CCCCNC(=O)[C@H](CCCCNC(=O)[C@H](CCCCNC(=O)CC[C@H](NC(=O)CCCCCCCCCCOc1ccc(C(=O)O)cc1)C(=O)O)N(C)C)N(C)C)NC(=O)[C@H](C)NC(=O)[C@H](C)NC(=O)[C@H](CCC(N)=O)NC(=O)CNC(=O)[C@H](CCC(=O)O)NC(=O)[C@H](CC(C)C)NC(=O)[C@H](Cc1ccc(O)cc1)NC(=O)[C@H](CO)NC(=O)[C@H](CO)NC(=O)[C@@H](NC(=O)[C@H](CC(=O)O)NC(=O)[C@H](CO)NC(=O)[C@@H](NC(=O)[C@H](Cc1ccccc1)NC(=O)[C@@H](NC(=O)CNC(=O)[C@H](CCC(=O)O)NC(=O)C(C)(C)NC(=O)[C@@H](N)Cc1c[nH]cn1)[C@@H](C)O)[C@@H](C)O)C(C)C)C(=O)N[C@@H](C)C(=O)N[C@@H](Cc1c[nH]c2ccccc12)C(=O)N[C@@H](CC(C)C)C(=O)N[C@H](C(=O)N[C@@H](CCCNC(=N)N)C(=O)NCC(=O)N[C@@H](CCCNC(=N)N)C(=O)N[C@@H](CCCCNC(=O)[C@H](CCCCNC(=O)[C@H](CCCCNC(=O)CC[C@H](NC(=O)CCCCCCCCCCOc1ccc(C(=O)O)cc1)C(=O)O)N(C)C)N(C)C)C(=O)O)C(C)C` [Example 37, N^ε26-[(2S)-6-[[(2S)-6-[[(4S)-4-carboxy-4-[11-(4-carboxyphenoxy)undecanoylamino]butanoyl]amino]-2-(dimethylamino)hexanoyl]amino]-2-(dimethylamino)hexanoyl], N^ε37-[(2S)-6-[[(2S)-6-[[(4S)-4-carboxy-4-[11-(4-carboxyphenoxy)undecanoylamino]butanoyl]amino]-2-(dimethylamino)hexanoyl]amino]-2-(dimethylamino)hexanoyl]-[Aib^8,Arg^34,Lys^37]-GLP-1-(7-37)-peptide], the concentration giving a half-maximal response (EC50) at human GLP-1 receptor [1] (setting [4]) amounted to 0.093 nM. This molecule also came in with a concentration for half-maximal inhibition (IC50) on human GLP-1 receptor [2] (setting [5]) of 24 nM.
